{"source": "the supplement of paper PMC10307832", "assay_in_all_cases": "relative viability (nuclei count vs DMSO), 5 days (fraction); higher = more cells survive", "key": {"COR-L 105": {"test_system": "COR-L 105", "outline": "(§1)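 Relative viability was taken as the ratio of nuclei in treated wells to nuclei in vehicle wells. Lung cancer cell lines in 1536-well plates received compounds by pin tool one day after seeding, either one drug alone or a fixed anchor-drug dose plus five library-drug doses (not always all listed) in √10 steps. Nuclei were counted on 4× images after 5 days of treatment, and values are medians of duplicate plates.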"}, "COR-L23": {"test_system": "COR-L23", "outline": "as §1"}, "HARA": {"test_system": "HARA", "outline": "as §1"}, "HCC-15": {"test_system": "HCC-15", "outline": "as §1"}, "HOP-62": {"test_system": "HOP-62", "outline": "as §1"}, "NCI-H1355": {"test_system": "NCI-H1355", "outline": "as §1"}, "NCI-H1395": {"test_system": "NCI-H1395", "outline": "as §1"}, "NCI-H1734": {"test_system": "NCI-H1734", "outline": "as §1"}, "NCI-H1755": {"test_system": "NCI-H1755", "outline": "as §1"}, "NCI-H1792": {"test_system": "NCI-H1792", "outline": "as §1"}, "NCI-H1793": {"test_system": "NCI-H1793", "outline": "as §1"}, "NCI-H1993": {"test_system": "NCI-H1993", "outline": "as §1"}, "NCI-H2009": {"test_system": "NCI-H2009", "outline": "as §1"}, "NCI-H2228": {"test_system": "NCI-H2228", "outline": "as §1"}, "NCI-H2347": {"test_system": "NCI-H2347", "outline": "as §1"}, "NCI-H358": {"test_system": "NCI-H358", "outline": "as §1"}, "NCI-H647": {"test_system": "NCI-H647", "outline": "as §1"}, "NCI-H838": {"test_system": "NCI-H838", "outline": "as §1"}, "SK-MES-1": {"test_system": "SK-MES-1", "outline": "as §1"}, "UMC-11": {"test_system": "UMC-11", "outline": "as §1"}}, "data": [{"smiles": "CCN(CC)CCCCNc1ncc2cc(-c3cc(OC)cc(OC)c3)c(NC(=O)NC(C)(C)C)nc2n1", "note": "+ C[C@]1(O)C[C@@H](c2nc(-c3ccc4ccc(-c5ccccc5)nc4c3)c3c(N)nccn32)C1 [Linsitinib] (partner 1 µM)", "values": [{"measurement": "relative viability", "setting": "COR-L 105; first compound 0.01 µM", "result": 1.1}, {"measurement": "relative viability", "setting": "COR-L 105; first compound 0.03162 µM", "result": 0.794}, {"measurement": "relative viability", "setting": "COR-L 105; first compound 0.1 µM", "result": 1.02}, {"measurement": "relative viability", "setting": "COR-L 105; first compound 0.3162 µM", "result": 0.963}, {"measurement": "relative viability", "setting": "COR-L 105; first compound 1 µM", "result": 0.868}, {"measurement": "relative viability", "setting": "COR-L23; first compound 0.01 µM", "result": 1}, {"measurement": "relative viability", "setting": "COR-L23; first compound 0.03162 µM", "result": 1.2}, {"measurement": "relative viability", "setting": "COR-L23; first compound 0.1 µM", "result": 1.15}, {"measurement": "relative viability", "setting": "COR-L23; first compound 0.3162 µM", "result": 1.09}, {"measurement": "relative viability", "setting": "COR-L23; first compound 1 µM", "result": 0.948}, {"measurement": "relative viability", "setting": "HARA; first compound 0.01 µM", "result": 1.04}, {"measurement": "relative viability", "setting": "HARA; first compound 0.03162 µM", "result": 1}, {"measurement": "relative viability", "setting": "HARA; first compound 0.1 µM", "result": 0.989}, {"measurement": "relative viability", "setting": "HARA; first compound 0.3162 µM", "result": 0.933}, {"measurement": "relative viability", "setting": "HARA; first compound 1 µM", "result": 0.672}, {"measurement": "relative viability", "setting": "HCC-15; first compound 0.01 µM", "result": 1.04}, {"measurement": "relative viability", "setting": "HCC-15; first compound 0.03162 µM", "result": 0.875}, {"measurement": "relative viability", "setting": "HCC-15; first compound 0.1 µM", "result": 0.951}, {"measurement": "relative viability", "setting": "HCC-15; first compound 0.3162 µM", "result": 0.925}, {"measurement": "relative viability", "setting": "HCC-15; first compound 1 µM", "result": 0.872}, {"measurement": "relative viability", "setting": "HOP-62; first compound 0.01 µM", "result": 1.04}, {"measurement": "relative viability", "setting": "HOP-62; first compound 0.03162 µM", "result": 1.02}, {"measurement": "relative viability", "setting": "HOP-62; first compound 0.1 µM", "result": 0.935}, {"measurement": "relative viability", "setting": "HOP-62; first compound 0.3162 µM", "result": 1.14}, {"measurement": "relative viability", "setting": "HOP-62; first compound 1 µM", "result": 0.873}, {"measurement": "relative viability", "setting": "NCI-H1355; first compound 0.01 µM", "result": 0.861}, {"measurement": "relative viability", "setting": "NCI-H1355; first compound 0.03162 µM", "result": 0.887}, {"measurement": "relative viability", "setting": "NCI-H1355; first compound 0.1 µM", "result": 0.873}, {"measurement": "relative viability", "setting": "NCI-H1355; first compound 0.3162 µM", "result": 0.898}, {"measurement": "relative viability", "setting": "NCI-H1355; first compound 1 µM", "result": 0.794}, {"measurement": "relative viability", "setting": "NCI-H1395; first compound 0.03162 µM", "result": 1.02}, {"measurement": "relative viability", "setting": "NCI-H1395; first compound 0.1 µM", "result": 0.935}, {"measurement": "relative viability", "setting": "NCI-H1395; first compound 0.3162 µM", "result": 1.04}, {"measurement": "relative viability", "setting": "NCI-H1395; first compound 1 µM", "result": 0.671}, {"measurement": "relative viability", "setting": "NCI-H1734; first compound 0.01 µM", "result": 0.864}, {"measurement": "relative viability", "setting": "NCI-H1734; first compound 0.03162 µM", "result": 0.923}, {"measurement": "relative viability", "setting": "NCI-H1734; first compound 0.1 µM", "result": 0.993}, {"measurement": "relative viability", "setting": "NCI-H1734; first compound 0.3162 µM", "result": 0.913}, {"measurement": "relative viability", "setting": "NCI-H1734; first compound 1 µM", "result": 0.835}, {"measurement": "relative viability", "setting": "NCI-H1755; first compound 0.01 µM", "result": 1.08}, {"measurement": "relative viability", "setting": "NCI-H1755; first compound 0.03162 µM", "result": 0.979}, {"measurement": "relative viability", "setting": "NCI-H1755; first compound 0.1 µM", "result": 0.995}, {"measurement": "relative viability", "setting": "NCI-H1755; first compound 0.3162 µM", "result": 1.08}, {"measurement": "relative viability", "setting": "NCI-H1755; first compound 1 µM", "result": 0.925}, {"measurement": "relative viability", "setting": "NCI-H1792; first compound 0.01 µM", "result": 0.572}, {"measurement": "relative viability", "setting": "NCI-H1792; first compound 0.03162 µM", "result": 0.501}, {"measurement": "relative viability", "setting": "NCI-H1792; first compound 0.1 µM", "result": 0.475}, {"measurement": "relative viability", "setting": "NCI-H1792; first compound 0.3162 µM", "result": 0.696}, {"measurement": "relative viability", "setting": "NCI-H1792; first compound 1 µM", "result": 0.295}, {"measurement": "relative viability", "setting": "NCI-H1793; first compound 0.01 µM", "result": 1.14}, {"measurement": "relative viability", "setting": "NCI-H1793; first compound 0.1 µM", "result": 1.02}, {"measurement": "relative viability", "setting": "NCI-H1793; first compound 0.3162 µM", "result": 1.03}, {"measurement": "relative viability", "setting": "NCI-H1793; first compound 1 µM", "result": 0.656}, {"measurement": "relative viability", "setting": "NCI-H1993; first compound 0.01 µM", "result": 0.763}, {"measurement": "relative viability", "setting": "NCI-H1993; first compound 0.03162 µM", "result": 0.807}, {"measurement": "relative viability", "setting": "NCI-H1993; first compound 0.1 µM", "result": 0.831}, {"measurement": "relative viability", "setting": "NCI-H1993; first compound 0.3162 µM", "result": 0.751}, {"measurement": "relative viability", "setting": "NCI-H1993; first compound 1 µM", "result": 0.731}, {"measurement": "relative viability", "setting": "NCI-H2009; first compound 0.01 µM", "result": 1.29}, {"measurement": "relative viability", "setting": "NCI-H2009; first compound 0.03162 µM", "result": 1.19}, {"measurement": "relative viability", "setting": "NCI-H2009; first compound 0.1 µM", "result": 1.23}, {"measurement": "relative viability", "setting": "NCI-H2009; first compound 0.3162 µM", "result": 1.26}, {"measurement": "relative viability", "setting": "NCI-H2009; first compound 1 µM", "result": 1.21}, {"measurement": "relative viability", "setting": "NCI-H2228; first compound 0.01 µM", "result": 0.741}, {"measurement": "relative viability", "setting": "NCI-H2228; first compound 0.03162 µM", "result": 0.834}, {"measurement": "relative viability", "setting": "NCI-H2228; first compound 0.1 µM", "result": 0.872}, {"measurement": "relative viability", "setting": "NCI-H2228; first compound 0.3162 µM", "result": 1.07}, {"measurement": "relative viability", "setting": "NCI-H2228; first compound 1 µM", "result": 0.635}, {"measurement": "relative viability", "setting": "NCI-H2347; first compound 0.01 µM", "result": 0.93}, {"measurement": "relative viability", "setting": "NCI-H2347; first compound 0.03162 µM", "result": 0.999}, {"measurement": "relative viability", "setting": "NCI-H2347; first compound 0.1 µM", "result": 0.916}, {"measurement": "relative viability", "setting": "NCI-H2347; first compound 0.3162 µM", "result": 1.05}, {"measurement": "relative viability", "setting": "NCI-H2347; first compound 1 µM", "result": 0.889}, {"measurement": "relative viability", "setting": "NCI-H358; first compound 0.01 µM", "result": 0.731}, {"measurement": "relative viability", "setting": "NCI-H358; first compound 0.03162 µM", "result": 0.748}, {"measurement": "relative viability", "setting": "NCI-H358; first compound 0.1 µM", "result": 0.767}, {"measurement": "relative viability", "setting": "NCI-H358; first compound 0.3162 µM", "result": 0.859}, {"measurement": "relative viability", "setting": "NCI-H358; first compound 1 µM", "result": 0.695}, {"measurement": "relative viability", "setting": "NCI-H647; first compound 0.01 µM", "result": 1.31}, {"measurement": "relative viability", "setting": "NCI-H647; first compound 0.03162 µM", "result": 1.09}, {"measurement": "relative viability", "setting": "NCI-H647; first compound 0.1 µM", "result": 1.75}, {"measurement": "relative viability", "setting": "NCI-H647; first compound 0.3162 µM", "result": 1.52}, {"measurement": "relative viability", "setting": "NCI-H647; first compound 1 µM", "result": 1}, {"measurement": "relative viability", "setting": "NCI-H838; first compound 0.01 µM", "result": 1.13}, {"measurement": "relative viability", "setting": "NCI-H838; first compound 0.03162 µM", "result": 1}, {"measurement": "relative viability", "setting": "NCI-H838; first compound 0.1 µM", "result": 1.05}, {"measurement": "relative viability", "setting": "NCI-H838; first compound 0.3162 µM", "result": 1.01}, {"measurement": "relative viability", "setting": "NCI-H838; first compound 1 µM", "result": 0.603}, {"measurement": "relative viability", "setting": "SK-MES-1; first compound 0.01 µM", "result": 1.04}, {"measurement": "relative viability", "setting": "SK-MES-1; first compound 0.03162 µM", "result": 1.26}, {"measurement": "relative viability", "setting": "SK-MES-1; first compound 0.1 µM", "result": 1.16}, {"measurement": "relative viability", "setting": "SK-MES-1; first compound 0.3162 µM", "result": 1.16}, {"measurement": "relative viability", "setting": "SK-MES-1; first compound 1 µM", "result": 1.09}, {"measurement": "relative viability", "setting": "UMC-11; first compound 0.01 µM", "result": 1.25}, {"measurement": "relative viability", "setting": "UMC-11; first compound 0.03162 µM", "result": 1.02}, {"measurement": "relative viability", "setting": "UMC-11; first compound 0.1 µM", "result": 1.29}, {"measurement": "relative viability", "setting": "UMC-11; first compound 0.3162 µM", "result": 1.21}, {"measurement": "relative viability", "setting": "UMC-11; first compound 1 µM", "result": 0.99}]}]}
